According to ChEMBL document CHEMBL1201862, “PubChem BioAssay data set” (2004):
Activity calls are given as the source filed them.

Tests used:
[1] = system: HEK293; test: HEK293T cell cytotoxicity, dose response, cytotoxicity control, ATP luminescence, cherry-pick samples (AID 687005); assay type: functional, cell-based; conditions: Homo sapiens;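 also: cells exposed to compound for 48 hours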
[2] = HEK293 Cytotoxicity Assay Measured in Cell-Based System Using Plate Reader - 7071-01_Inhibitor_Dose_CherryPick_Activity_Set2.; assay type: functional
[3] = inhibitors of HIV Env-driven cell fusion, dose response, cherry-pick (AID 652057); assay type: functional, cell-based
[4] = inhibitors of clade B AD8 Env fusion, dose response, cell-based, cherry-pick (AID 652062); assay type: functional;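 also: luciferase signal from cell-cell fusion driven by HIV-1 clade B AD8 Env; potency is for inhibitors of fusion seen as a drop in luminescence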
[5] = T. cruzi growth inhibition in host cells, dose response, cell-based, plate reader, dry powder, set 2 (AID 652275); assay type: functional
[6] = growth inhibition of intracellular T. cruzi, dose response, cell-based, plate reader, dry powder samples (AID 651845); assay type: functional
[7] = T. cruzi intracellular amastigote growth inhibition, dose response, imaging, CA-I/72 strain, bovine embryo skeletal muscle, dry powder (AID 651885); assay type: functional, cell-based
[8] = CTGF mRNA reduction under YAP1 overexpression, dose response, mechanism study for YAP1 pathway inhibitor project, DLD1 cells, RT-qPCR, cherry-pick (AID 1053127); assay type: functional, cell-based; conditions: DLD-1
[9] = YAP1 pathway inhibition via CTGF transcript levels, dose response, cell-based, DLD1 colon cancer, RT-qPCR, cherry-pick (AID 1053122); assay type: functional; conditions: Cancer cell lines
[10] = inhibitors of non-replicating M. tuberculosis, dose response, luciferase, dry powder (AID 651619); assay type: functional; conditions: Mycobacterium tuberculosis
[11] = inhibitors of non-replicating M. tuberculosis, dose response, luciferase, dry powder (AID 651620); assay type: functional; conditions: Mycobacterium tuberculosis
[12] = growth inhibition of replicating M. tuberculosis, dose response, counter-screen, dry powder, IC90 (AID 651617); assay type: functional; conditions: Mycobacterium tuberculosis
[13] = HepG2 cell cytotoxicity, dose response, cytotoxicity control, cherry-picks, set 5 (AID 1053118); assay type: functional, cell-based
[14] = HEK293 cell cytotoxicity, dose response, cytotoxicity control, cherry-picks, set 5 (AID 1053117); assay type: functional, cell-based
[15] = A549 cell cytotoxicity, dose response, cytotoxicity control, cherry-picks, 26 µM top dose (AID 1053119); assay type: functional, cell-based
[16] = inhibitors of fibronectin matrix deposition, dose response, AH1F cells, Alexa488-FN fluorescence, cherry-picks (AID 1035475); assay type: functional, cell-based
[17] = target: DNA (cytosine-5)-methyltransferase 1 (Homo sapiens, UniProt P26358); test: DNMT1 methyltransferase inhibitors, confirmation, biochemical, fluorescent molecular beacon (AID 602386); assay type: functional
[18] = target: NAD-dependent protein deacylase sirtuin-5, mitochondrial (Homo sapiens, UniProt Q9NXA8); test: SIRT5 desuccinylase inhibitors, dose response, biochemical, fluorescence imaging, cherry-pick, set 5 (AID 720591);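 also: desuccinylation of succinyl peptide AMC substrate read as fluorescence after trypsin release; potency of inhibitors that lower fluorescence and may act on trypsin instead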
[19] = microbe, parasite or virus in culture; assay type: functional; conditions: Mycobacterium tuberculosis
[20] = Shn3 3'UTR reporter inhibitors, dose response, cell-based, Clone20 osteoblasts, firefly luciferase, cherry-picked (AID 624132); assay type: functional;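 also: firefly luciferase luminescence from reporter carrying the Shn3 3'UTR in osteoblasts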
[21] = reduction of Shn3 3'UTR firefly luciferase signal, dose response, Schnurri-3 inhibitor project, cell-based, Clone20 osteoblasts, cherry-pick, set 2 (AID 720490); assay type: functional;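 also: actives lower the luminescence signal as inhibitors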
[22] = THP-1 cell cytotoxicity, dose response, cytotoxicity control for non-replicating M. tuberculosis project (AID 489025); assay type: functional
[23] = HepG2 cell cytotoxicity, dose response, cytotoxicity control for non-replicating M. tuberculosis project (AID 489018); assay type: functional; conditions: Mycobacterium tuberculosis
[24] = Vero E6 cell cytotoxicity, dose response, cytotoxicity control for non-replicating M. tuberculosis project, secondary assay (AID 492998); assay type: functional, VeroE6; conditions: Vero C1008
[25] = target: T1, Short transient receptor potential channel 4 (Mus musculus, UniProt Q9QUQ5); test: mouse TRPC4 channel activators, dose response, cell-based, HEK293 TRPC4/mu-opioid, Fluo-4 calcium (AID 434937); assay type: functional
T1 sequence (Q9QUQ5 whole entry): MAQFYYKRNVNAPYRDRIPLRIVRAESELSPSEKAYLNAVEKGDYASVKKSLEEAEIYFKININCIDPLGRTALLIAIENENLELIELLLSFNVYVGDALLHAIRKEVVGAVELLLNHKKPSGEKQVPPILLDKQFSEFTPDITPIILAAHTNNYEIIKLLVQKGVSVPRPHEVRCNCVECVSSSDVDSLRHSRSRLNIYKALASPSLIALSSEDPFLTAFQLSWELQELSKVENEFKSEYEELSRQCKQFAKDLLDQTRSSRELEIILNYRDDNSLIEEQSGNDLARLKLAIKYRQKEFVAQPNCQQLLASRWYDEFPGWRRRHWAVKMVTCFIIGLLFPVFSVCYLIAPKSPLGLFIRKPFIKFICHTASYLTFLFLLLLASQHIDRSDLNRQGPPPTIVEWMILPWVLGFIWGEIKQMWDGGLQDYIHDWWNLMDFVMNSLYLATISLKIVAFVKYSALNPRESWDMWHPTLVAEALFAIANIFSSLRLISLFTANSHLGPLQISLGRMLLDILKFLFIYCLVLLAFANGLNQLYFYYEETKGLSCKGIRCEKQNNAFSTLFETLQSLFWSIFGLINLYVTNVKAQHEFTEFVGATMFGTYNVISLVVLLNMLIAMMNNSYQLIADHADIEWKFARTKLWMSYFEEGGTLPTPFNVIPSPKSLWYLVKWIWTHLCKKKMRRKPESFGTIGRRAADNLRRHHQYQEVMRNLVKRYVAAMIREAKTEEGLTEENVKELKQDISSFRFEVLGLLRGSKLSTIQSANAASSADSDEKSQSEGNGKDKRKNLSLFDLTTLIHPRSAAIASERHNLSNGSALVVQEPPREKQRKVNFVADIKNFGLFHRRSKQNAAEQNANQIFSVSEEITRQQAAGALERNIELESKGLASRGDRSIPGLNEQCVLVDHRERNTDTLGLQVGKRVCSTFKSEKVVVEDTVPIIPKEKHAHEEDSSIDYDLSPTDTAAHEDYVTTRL

[26] = cells; assay type: functional
[27] = system: Vero; test: cells; assay type: functional, cell-based; conditions: Chlorocebus sabaeus
[28] = system: Vero; test: cells; assay type: functional; conditions: Chlorocebus sabaeus
[29] = HepG2 cell cytotoxicity, dose response, cytotoxicity control, ATP luminescence, cherry-pick, set 6 (AID 1053125); assay type: functional, cell-based
[30] = human group III sPLA2 inhibitors, dose response, biochemical, QFRET, IC50 (AID 743457);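 also: green fluorescence rise as the enzyme cleaves BODIPY PC-A2 in liposomes; potency for inhibition of the enzyme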
[31] = cells; conditions: A549
[32] = cells; conditions: HEK293
[33] = HepG2 cell cytotoxicity, dose response, cytotoxicity control, luminescence plate reader, powder samples, set 2 (AID 651860); assay type: functional, cell-based
[34] = cytotoxicity in HepG2 cells, dose response, cytotoxicity control, cell-based, plate reader, dry powder (AID 651947); assay type: functional
[35] = A549 cell cytotoxicity, dose response, cytotoxicity control, 24 h, CellTiter-Glo luminescence, cherry-picks (AID 1053115); assay type: functional, cell-based; conditions: A549, 24 h
[36] = miR-122 activators in hepatoma reporter cells, dose response, cell-based, Huh7 psiCHECK-miR122, Renilla luciferase, cherry-picked (AID 651956); assay type: functional;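 also: huh7 hepatoma cells stably carrying a psiCHECK-2 miR-122 sensor plasmid; renilla luciferase signal reporting endogenous miR-122 activity after 48 h compound exposure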
[37] = inhibitors of PGC1a acetylation in cells, dose response, cell-based, cherry-picked samples (AID 720514); assay type: functional;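 also: potency may reflect raised or lowered acetylation signal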
[38] = HEK293T cytotoxicity, dose response, cytotoxicity control for miR-122 modulator project, cell-based, activator set, cherry-pick (AID 720690); assay type: functional;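 also: HEK293T human cells scored for general mammalian cytotoxicity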
[39] = P. falciparum Dd2 growth inhibitors, dose response, SYBR Green, cherry-picked samples (AID 1159567); assay type: functional, cell-based
[40] = HepG2 cell cytotoxicity, dose response, cytotoxicity control, cherry-picked samples (AID 1159577); assay type: functional, cell-based
[41] = target: Kallikrein-7 (Homo sapiens, UniProt P49862); test: Fluorescence Intensity-based biochemical primary high throughput dose response assay to identify activators of kallikrein-7 (K7) zymogen.
[42] = EDANS-DABCYL fluorescence interference, concentration series, dose response, artefact control for kallikrein-7 zymogen activator project, biochemical, fluorescence intensity, triplicate (AID 720493)
[43] = inhibitors of firefly luciferase expression or activity, dose response, H4 neuroglioma cells, luminescence (AID 1990); assay type: functional, cell-based
[44] = system: BJ; test: cytotoxicity toward BJ-TERT fibroblasts, dose response, cell-based, RAS-independent, luminescence (AID 1933); assay type: functional; conditions: Homo sapiens
[45] = Luminescence Cell-Based Dose Response HTS to Identify Inhibitors of 5'UTR Stem-Loop Driven Prion Protein mRNA Translation in H4 Neuroglioblastoma Cells. [Related pubchem assays: 1827 (Project Summary), 1813 (Primary HTS)]; assay type: functional
[46] = inhibitors of SNCA 5'UTR-driven reporter translation, confirmation, H4 neuroglioma cells, luminescence (AID 1988); assay type: functional, cell-based
[47] = system: BJ; test: cells; assay type: functional, cell-based; conditions: Homo sapiens
[48] = system: BJ; test: cytotoxicity toward BJ-TERT-LT-ST fibroblasts, dose response, cell-based, RAS-independent, luminescence (AID 1935); assay type: functional; conditions: Homo sapiens;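 also: BJ fibroblasts immortalized with TERT plus LT and ST oncogenes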
[49] = cytotoxicity toward DRD oncogenic fibroblasts, dose response, cell-based, non-viral oncogenic, luminescence (AID 1934); assay type: functional; conditions: Homo sapiens
[50] = cytotoxicity in HEK-293T cells, dose response, cytotoxicity control for TCR NF-kB inhibitor project, luminescence, T-cell screen hits (AID 489026); assay type: functional, cell-based;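 also: cells exposed to compound about 14 hours before the viability readout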
[51] = system: BJ; test: cytotoxicity toward Ras-transformed BJeLR fibroblasts, dose response, cell-based, alamar blue fluorescence, cherrypicked samples (AID 2631); assay type: functional; conditions: Homo sapiens;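 also: confirmatory dose-response assay in RAS-dependent BJ fibroblasts engineered with TERT, LT and ST, with cytotoxicity read by fluorescence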
[52] = HEK293 cell cytotoxicity, dose response, cytotoxicity control, dry powder samples (AID 720567); assay type: functional, cell-based
[53] = HepG2 cell cytotoxicity, dose response, cytotoxicity control, dry powder samples (AID 720568); assay type: functional, cell-based

Sequence of Kallikrein-7 (P49862 whole entry): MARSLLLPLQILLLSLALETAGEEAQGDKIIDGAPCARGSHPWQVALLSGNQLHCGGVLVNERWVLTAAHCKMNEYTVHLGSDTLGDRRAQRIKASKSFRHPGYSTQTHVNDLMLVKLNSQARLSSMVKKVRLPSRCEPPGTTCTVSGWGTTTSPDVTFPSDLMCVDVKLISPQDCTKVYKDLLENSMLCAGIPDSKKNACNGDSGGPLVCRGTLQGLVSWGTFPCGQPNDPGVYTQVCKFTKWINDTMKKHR
Sequence of NAD-dependent protein deacylase sirtuin-5, mitochondrial (Q9NXA8 whole entry): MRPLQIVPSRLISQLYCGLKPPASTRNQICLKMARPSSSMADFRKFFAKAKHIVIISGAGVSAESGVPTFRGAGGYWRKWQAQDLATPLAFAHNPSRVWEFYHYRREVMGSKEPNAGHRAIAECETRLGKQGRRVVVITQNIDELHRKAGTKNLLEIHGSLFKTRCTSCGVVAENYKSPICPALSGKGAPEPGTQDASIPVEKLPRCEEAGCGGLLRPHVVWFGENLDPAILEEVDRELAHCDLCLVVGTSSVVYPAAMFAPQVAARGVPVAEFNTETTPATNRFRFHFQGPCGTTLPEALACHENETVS
Sequence of DNA (cytosine-5)-methyltransferase 1 (P26358 whole entry): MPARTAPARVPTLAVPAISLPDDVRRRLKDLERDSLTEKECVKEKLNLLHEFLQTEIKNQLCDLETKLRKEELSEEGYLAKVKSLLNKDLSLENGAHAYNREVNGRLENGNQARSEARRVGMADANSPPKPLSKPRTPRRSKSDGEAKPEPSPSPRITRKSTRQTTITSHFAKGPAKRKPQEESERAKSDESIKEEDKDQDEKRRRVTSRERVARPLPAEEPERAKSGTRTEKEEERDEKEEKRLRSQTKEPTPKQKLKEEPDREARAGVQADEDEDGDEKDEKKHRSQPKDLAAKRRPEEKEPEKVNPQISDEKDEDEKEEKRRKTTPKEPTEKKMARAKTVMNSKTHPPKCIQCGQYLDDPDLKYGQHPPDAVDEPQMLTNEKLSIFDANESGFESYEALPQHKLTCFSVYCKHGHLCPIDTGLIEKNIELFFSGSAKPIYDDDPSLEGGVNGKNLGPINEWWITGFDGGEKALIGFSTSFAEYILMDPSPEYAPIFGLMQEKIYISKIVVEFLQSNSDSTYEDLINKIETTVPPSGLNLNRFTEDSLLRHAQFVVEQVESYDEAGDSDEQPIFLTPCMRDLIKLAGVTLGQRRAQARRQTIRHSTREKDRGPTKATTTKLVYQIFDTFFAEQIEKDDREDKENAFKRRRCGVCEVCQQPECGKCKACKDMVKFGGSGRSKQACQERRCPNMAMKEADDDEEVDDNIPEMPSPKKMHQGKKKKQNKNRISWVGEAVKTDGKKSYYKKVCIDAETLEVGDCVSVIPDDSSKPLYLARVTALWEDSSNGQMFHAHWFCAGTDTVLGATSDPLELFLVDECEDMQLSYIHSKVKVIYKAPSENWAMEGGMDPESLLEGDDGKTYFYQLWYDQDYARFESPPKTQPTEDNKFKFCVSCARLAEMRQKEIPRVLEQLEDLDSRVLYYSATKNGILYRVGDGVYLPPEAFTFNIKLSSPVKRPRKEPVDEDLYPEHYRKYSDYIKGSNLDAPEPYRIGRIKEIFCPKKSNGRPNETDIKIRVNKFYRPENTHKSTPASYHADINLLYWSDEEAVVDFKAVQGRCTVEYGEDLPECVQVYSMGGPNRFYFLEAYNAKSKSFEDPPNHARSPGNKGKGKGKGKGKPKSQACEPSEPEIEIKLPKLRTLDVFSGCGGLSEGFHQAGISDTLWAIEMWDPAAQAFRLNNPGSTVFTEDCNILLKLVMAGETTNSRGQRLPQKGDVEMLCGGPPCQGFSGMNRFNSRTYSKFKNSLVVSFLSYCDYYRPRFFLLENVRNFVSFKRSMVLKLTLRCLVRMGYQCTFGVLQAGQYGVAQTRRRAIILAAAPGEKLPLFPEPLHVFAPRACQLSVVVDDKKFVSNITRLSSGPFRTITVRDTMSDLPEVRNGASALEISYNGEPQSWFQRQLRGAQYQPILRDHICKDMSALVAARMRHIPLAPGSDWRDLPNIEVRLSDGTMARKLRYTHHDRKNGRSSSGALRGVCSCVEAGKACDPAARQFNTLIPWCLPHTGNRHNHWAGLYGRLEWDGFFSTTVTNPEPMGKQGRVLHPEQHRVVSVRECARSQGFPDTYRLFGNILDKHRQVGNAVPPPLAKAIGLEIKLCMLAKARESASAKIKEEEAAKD

SMILES: COc1ccc(S(=O)(=O)N[C@@H]2C=C[C@@H](CC(=O)N3CCC(Cc4ccccc4)CC3)O[C@H]2CO)cc1
- AC50 [1]: 19.9 µM (active)
- AC50 [2]: 19.9 µM (active)

SMILES: C[C@@H]1CN([C@H](C)CO)C(=O)c2cccc(NC(=O)c3ccncc3)c2O[C@H]1CN(C)CC1CCCCC1
- AC50 [3]: 0.884 µM (active)
- AC50 [4]: 4.84 µM (active)
- AC50 [5]: 0.303 µM (active)
- AC50 [6]: 0.391 µM (active)
- IC50 [7]: 0.961 µM (active)

SMILES: C[C@@H]1C/C=C/C[C@H](c2ccc(F)cc2)NC(=O)[C@@H](Cc2ccccc2)N(C)C(=O)c2ccccc2O1.C[C@@H]1C/C=C\C[C@H](c2ccc(F)cc2)NC(=O)[C@@H](Cc2ccccc2)N(C)C(=O)c2ccccc2O1
- AC50 [8]: 20.9 µM (active)
- AC50 [9]: 4.01 µM (active)

SMILES: c1ccc(Cn2cc(CSc3nnc(C4CCC4)o3)nn2)cc1
- IC90 [10]: 4 µM (active)
- IC90 [11]: 4 µM (active)
- IC90 [12]: 250 µM (active)

SMILES: COc1ccc(S(=O)(=O)N2CCCCC2c2cc(C(=O)Nc3ccc4c(c3)OCO4)no2)cc1 (stereo not drawn)
- AC50 [13]: 15.4 µM (active)
- AC50 [14]: 11.4 µM (active)
- AC50 [15]: 23.9 µM (active)
- AC50 [16]: 32.6 µM (active)

SMILES: Cc1ccc(S(=O)(=O)N2[C@@H](c3ccc(C(C)(C)C)cc3)C(C(=O)O)=CC[C@H]2c2ccc(C(C)C)cc2)cc1
- IC50 [17]: 5.04 µM (active)
- AC50 [18]: 17.5 µM (active)

SMILES: O=C(c1nnc(O)c2ccccc12)N1CCN(C2c3ccccc3-c3ccccc32)CC1
- CC50 [19]: > 40 µM (active)
- AC50 [20]: 7.69 µM (active)
- AC50 [21]: 10.7 µM (active)

SMILES: CCCOc1ccc(C(=O)NNC(=S)NC(=O)c2ccco2)cc1
- CC50 [22]: 7.6 µM (active)
- CC50 [23]: 17.4 µM (active)
- CC50 [24]: 8.73 µM (active)
- EC50 [25]: 5.96 µM (active)
- IC50 [26]: 2.55 µM (active)
- IC50 [27]: > 25 µM (active)
- CC50 [28]: 20.7 µM (active)
- AC50 [29]: > 52 µM (inactive)
- IC50 [30]: 44 µM (inactive)
- AC50 [31]: 36.8 µM (active)
- AC50 [32]: 42.2 µM (active)

SMILES: O=C(O)[C@H]1CCCC[C@H]1C(=O)N1CCc2ccccc2C1CCN1C(=O)c2ccccc2C1=O (stereo partly drawn)
- AC50 [33]: > 52 µM (inactive)

SMILES: c1ccc(CSc2nnc(-c3cscn3)o2)cc1
- AC50 [34]: 34.4 µM (active)

SMILES: CN1c2ccc(-c3ccc(C#N)cc3)cc2[C@H]2[C@H](CCN2C(=O)C2CCCCC2)[C@@H]1CO
- AC50 [35]: 36.2 µM (active)

SMILES: O=C(Nc1ccccc1F)N1CCCCN2[C@@H](CO)[C@@H](c3ccc(C#Cc4ccccc4)cc3)[C@@H]2C1
- AC50 [36]: 8.65 µM (active)
- AC50 [37]: 15.9 µM (active)
- AC50 [38]: 7.45 µM (active)
- AC50 [39]: 2.13 µM (active)
- AC50 [40]: 9.78 µM (active)

SMILES: O=C1c2ccccc2NC(c2cccnc2)N1c1ccccc1F (stereo not drawn)
- EC50 [41]: > 69.5 µM (inactive)
- EC50 [42]: > 7.72 µM (active)

SMILES: CC(=O)c1ccc(Oc2cc(C)nc(-n3nc(C)cc3C)n2)cc1
- EC50 [43]: 4.5 µM (active)
- EC50 [44]: 1.95 µM (active)
- EC50 [45]: 0.339 µM (active)
- EC50 [46]: 0.44 µM (active)
- EC50 [47]: 63.8 µM (inconclusive)
- EC50 [48]: 1.45 µM (active)
- EC50 [49]: 0.917 µM (active)
- IC50 [50]: > 80 µM (inactive)
- EC50 [51]: 0.264 µM (active)
- AC50 [52]: 15.8 µM (active)
- AC50 [53]: > 30 µM (inactive)
